Entries after “also recorded” stand apart in the source; their conditions may differ. Positions of bridges follow the written chain, without caps; N, C: chain ends. Non-standard residues stand in square brackets, D forms with d. Residues, ends and D or L forms follow the SMILES beside them. No end group written: not given here. β2Val = β2-Val (beta2-Val), beta-amino acid; d2Nal = N[C@H](Cc1ccc2ccccc2c1)C(=O)O; β3hP = O=C(O)C[C@@H]1CCCN1; Nle = CCCC[C@H](N)C(=O)O
Key:
[1] = test system: LPS-induced cachexia in rats; experiment: Lipopolysaccharide (LPS)-induced cachexia assay; assay type: in vivo, rat; conditions: for food intake, 24 hours after LPS challenge / body weight (percent of pre-LPS baseline), 24 hours after LPS challenge: 0.2 mg/kg intraperitoneally; for food intake, 24 hours after LPS challenge: FIG. 8A; for body weight (percent of pre-LPS baseline), 24 hours after LPS challenge: FIG. 8B; for anti-cachectic activity after ICV (IVt) administration (in words): intracerebroventricular administration; for peripheral (IP) anti-cachexia activity, feeding (in words): peripheral / intraperitoneal administration after LPS
Protocol: The LPS model uses rats were maintained on a 12 h light/dark schedule with ad libitum access to food and water. Animals were handled daily for a minimum of three consecutive days to decrease non-specific handling stress. On the day of the experiment, individually housed animals received intraperitoneal injections of LPS dissolved in 0.5% low-endotoxin BSA, 0.9% saline or 0.5% BSA in 0.9% saline alone, and were returned to their home cage. The drug or control was administered (ICV, IP, or PO, depending on the type of study) 1-hour after LPS injection.
In the experiments described herein, a series of melanocortin receptor antagonist peptides were examined in a bacterial endotoxin inducing cachexia assay. For this assay, a rat is challenged with a single peripheral injection of lipopolysaccharide (LPS). LPS is a heat-stable lipo-polysaccharide, the major component of the outer membrane (capsule) of gram negative bacteria. In non-capsulated strains, it appears as a cell surface […]. LPS produces a strong immune response, including secretion of the proinflammatory cytokines Tumor Necrosis Factor α (TNFα) and interleukin-1 (IL-1). Proinflammatory cytokines are known factors that induce cachexia.
Rats are maintained on a 12-hour light/dark cycle. Animals are handled daily for a minimum of 5 consecutive days to acclimate them to the handling required for the experiment. […] On the day of the experiment, individually housed animals receive intraperitoneal (IP) injections of LPS dissolved in 0.5% low-endotoxin BSA, 0.9% saline or 0.5% BSA in 0.9% saline alone, and returned in their home cage. Melanocortin receptor antagonist peptides were administered (IP or by gavage, depending on the type of study) one hour after the LPS injection. The extent of cachexia is measured by the reduction in food intake, measured every two hours. The cachexia typically lasts only a single day. However, rats lose up to 5% of their body weight during a 12-hour light cycle, making up this loss plus food needed for normal growth during the 12-hour dark cycle. Thus, failure to eat appropriately during a single dark cycle is determinable from the animal's weight and any changes thereof.
A series of melanocortin receptor antagonist peptides were examined in a bacterial toxin inducing cachexia assay. In this assay, a rat was challenged with a single peripheral injection of lipopolysaccharide (LPS), a bacterial toxin that rapidly induces acute cachexia. The extent of cachexia was measured as a reduction in food intake, measured every two hours. The cachexia typically lasts only a single day.

[2] = TCMCB07 in rat plasma and cerebrospinal fluid after IV administration (HPLC fluorescence, mass spectrometry); assay type: in vivo
Protocol: Urethane-Anesthetized Rats Had Polyethylene (PE)-Tubing Cannulas Placed in their Femoral artery and vein. Each rat was then placed in a small animal stereotaxic apparatus, their head fixed in the lateral plane with ear bars, and their head placed in a 45-50° downward angle by placing their nose below an adjustable tooth bar. This position placed the animal's cistern magna at the highest vertical position of its body. The dural covering of the dorsal cistern magna was exposed.
A stainless steel cannula, with one end attached to PE-tubing, was placed in a stereotaxic tower cannula holder (open end down). The free end of the PE-tubing was attached to a 100 μL gas-tight Hamilton syringe with a 28-gauge needle. The cannula was adjusted to a position that approximated the middle of the exposed cistern magna, and the cannula lowered until it touched the dura mater. […] The dura has a degree of flexibility such that the cannula can depress it before it pierces it. After it was pierced, the dural rises to its original position, placing the cannula tip within the cistern magna space. The position of the cannula tip was again noted on the vertical axis of the tower. Typically, the cannula tip was 1.6-1.8 mm below the original dura-touch position. The cannula tip was then adjusted, if needed, to 1.8 mm below the dura, and the cannula sealed to the dura using skin glue. Samples of cisternal cerebrospinal (CSF) fluid were removed through cannula and PE-tubing by slowly drawing on the Hamilton syringe.
For the experimental procedure, baseline samples of blood and CSF were taken (“0” time points), followed by the IV administration of 750 nmol/kg TCMCB07. Samples of CSF (50 μL) and blood (1 mL) were collected at the following time points: 0, 5, 15, 30, and 90 minutes. […] Both CSF and plasma were stored at −80° C. until analyzed by (HPLC) with spectrofluoremetric monitoring at 230 nm excitation and […] emission (the fluorescence maximum for the Nal residue). […]

Lewis sarcoma rat = experiment: Reversal of cachexia-induced lethargy; assay type: in vivo; conditions: once-daily peripheral dosing for 48 hours (2 IP doses), irrespective of tumor load
From the text: In animals and humans, cachexia produces “lethargy,” i.e., the aversion to activity. Grossberg et al., J. Neurosci. 31(31): 11376-11386. […] This therapeutic effect is dependent on a stabilized melanocortin antagonist C-terminal extension. Video recordings characterized control animal behavior as neo-exploratory movement about the cage, i.e., repeated “sniffing” the air to presumably sample odors (e.g., neighboring animals), grooming, and intermittent bouts of eating and drinking. Caldecott-Hazard et al., J. Neurosci. 8(6): 1951-1961 (1988).
The animal typically remains in one position for an extended period of time (>1 minute). Occasionally it will change position, assuming the new position for an extended period. The rats show no grooming behavior, evident in the appearance of their coat and eyes.

cachexia models = conditions: Marks et al., Cancer Res. 2001; cited from earlier work
[3] = Sutton et al., Peptides 2008; cited from earlier work
[4] = test system: urethane-anesthetized rats; experiment: Cardiovascular activity of melanocortin peptides (MAP, heart rate, ECG); conditions: 200 nmol, n = 5
Protocol: These studies were performed in urethane-anesthetized rats, since anesthesia is required for six-lead ECG monitoring. […] Initial selection of doses was guided by FDA exploratory IND studies with a recommendation for at least a 100-fold excess of the human dose.

CCCC[C@H](NC(C)=O)C(=O)N[C@H]1CC(=O)NCCCC[C@@H](C(=O)N[C@@H](C(=O)N2CCC[C@@H]2C(N)=O)C(C)C)NC(=O)[C@H](Cc2c[nH]c3ccccc23)NC(=O)[C@H](CCCN=C(N)N)NC(=O)[C@@H](Cc2ccc3ccccc3c2)NC(=O)[C@@H]2CCCN2C1=O [TCMCB07, Ac-Nle-c[Asp-Pro-D-Nal(2′)-Arg-Trp-Lys]-D-Val-D-Pro-NH2] (Ac-[Nle]DP[d2Nal]RWK[dV][dP]-NH2; lactam 2-7)
blood-brain barrier transport (concluded from peripheral vs ICV activity) ([1]; LPS model): both gastrointestinal and blood-brain barrier transport | proposed metabolite peak (retention time 12.9 minutes) in CSF ([2]; 5 and 30 minutes post IV 750 nmol/kg, peak height): peak height increases over time; also recorded: increased cerebrospinal fluid concentration | transport through the blood-brain-barrier (physical evidence) ([2]; IV 750 nmol/kg): direct physical evidence of TCMCB07 transport through the blood-brain-barrier | presence in CSF by mass spectrometry of HPLC effluent ([2]; after IV 750 nmol/kg, no obvious Nal-fluorescence peak): confirmed the presence of TCMCB07 in CSF

CCCC[C@H](NC(C)=O)C(=O)N[C@H]1CC(=O)NCCCC[C@@H](C(=O)N[C@@H](C(=O)N2CCC[C@@H]2C(N)=O)C(C)C)NC(=O)[C@H](Cc2c[nH]c3ccccc23)NC(=O)[C@H](CCCNC(=N)N)NC(=O)[C@@H](Cc2ccc3ccccc3c2)NC(=O)[C@@H]2CCCN2C1=O [TCMCB07, Ac-Nle-c[Asp-Pro-D-Nal(2′)-Arg-Trp-Lys]-D-Val-D-Pro-NH2] (Ac-[Nle]DP[d2Nal]RWK[dV][dP]-NH2; lactam 2-7)
food intake, 24 hours after LPS challenge [1]: stimulated appetites | body weight (percent of pre-LPS baseline), 24 hours after LPS challenge [1]: significantly gained weight | peripheral (IP) LPS anti-cachectic activity relative to TCMCB02 ([1]; IP): 10 fold | oral activity / gastrointestinal transport (in words) ([1]; gavage (intra-gastric) administration, LPS cachexia): significant enhancement of food intake | anti-cachectic activity after ICV (IVt) administration (in words) ([1]; LPS model): maintained ICV activity | peripheral (IP) anti-cachexia activity, feeding (in words) [1]: equivalent stimulation of feeding; also recorded: significant increase in feeding | activity following peripheral administration relative to TCMCB02 ([1]; peripheral administration): about 10 times | behavior of cachectic (lethargic) rats (Lewis sarcoma rat): restored “normal” behavior to rats

AGRP: endogenous melanocortin system inhibitor (agouti-related protein); naturally occurring melanocortin antagonist protein (SSRRCVRLHESCLGQQVPCCDPCATCYCRFFNAFCYCRKLGTAMNPCSRT; ends and bridges not checked; cysteine pairing not given here; UniProt O00253 83-132, looked up)
reversal of cachexia-anorexia syndrome (cachexia models): 100%

Ac-Nle-c[Asp-Pro-D-Nal(2′)-Arg-Trp-Lys]-Pro-Val-NH2 (Ac-[Nle]DP[d2Nal]RWKPV-NH2; lactam 2-7) [PG932]
peripheral activity [3]: active peripherally | Duration [4]: 4 ± 3 min | Peak Heart Rate Response (BPM) [4]: 13 ± 9 BPM | Peak MAP Response (Δ mm Hg) [4]: 5 ± 3 mm Hg

Ac-Nle-c[Asp-Pro-D-Nal(2′)-Arg-Trp-Lys]-β^3-Pro-β^2-Val-NH2 (Ac-[Nle]DP[d2Nal]RWK[β3hP][β2Val]-NH2; lactam 2-7) [TCMCB05]
food intake, 24 hours after LPS challenge [1]: stimulated appetites | body weight (percent of pre-LPS baseline), 24 hours after LPS challenge [1]: significantly gained weight | molar activity relative to TCMCB02 ([1]; ICV administration, LPS-induced cachexia): 10 fold | anti-cachectic activity after ICV (IVt) administration (in words) ([1]; LPS model): molar activity equivalent to TCMCB02 | peripheral (IP) anti-cachexia activity, feeding (in words) [1]: had IP anti-cachexia activity; also recorded: had peripheral anti-cachexia activity; also recorded: Only TCMCB07 produced a significant increase in feeding | behavior of cachectic (lethargic) rats (Lewis sarcoma rat): restored “normal” behavior to rats
